4 compounds from patent US20240189292A1 (priority 2021, published 2024) can be followed below.

What is called AUC is concentration integrated over time. One may read the clearance as the volume of plasma or blood freed of the substance per unit of time. Usually Vd stands for the apparent volume that relates the amount in the body to the concentration in plasma or blood.

This data set can be described thus: in vivo. Set-up: species or system SD rats. Particulars: male, SD, rat, plasma; for AUC: read-out: Area Under Curve AUC; for clearance: read-out: Clearance Rate Cl; for C0: read-out: Initial Concentration C0; for Vd: read-out: Volume of Distribution Vd; for Cmax: read-out: Peak Concentration Cmax; for bioavailability: read-out: Bioavailability F.
The mark [1] stands for this setting: po, 1 mg/kg, read-out: Peak Concentration Time T1/2 (converted).
The mark [2] stands for this setting: iv, 0.2 mg/kg, read-out: Half-life T1/2 (converted).

Like-named read-outs stand apart in the source and are kept apart here.

In the case of `C[C@H](NC1=CC(=O)C2(CCCC2)C(=O)N1)c1cc(F)ccc1F` [Compound 10], where the note is “intravenous, 0.2 mg/kg”, the exposure (AUC) is 1.29 µM·h, the clearance was found to be 6 mL/min/kg, the C0 is 1460 nM and the Vd is 2.7 L/kg. Further, the half-life (intravenous, 0.2 mg/kg, read-out: Half-life T1/2 (converted)) is 6.37 h. Besides, where the note is “po, 1 mg/kg”, the AUC stood at 7.93 µM·h and the Cmax was 1310 nM. Further, the half-life under setting [1] is 4.83 h.

Consider `Cc1ccc(F)c([C@H](C)NC2=CC(=O)C3(CCCC3)C(=O)N2)c1` [Compound 9], for which, under “iv, 0.2 mg/kg”, the AUC stood at 2.11 µM·h, the clearance was found to be 4.78 mL/min/kg, the C0 turned out to be 4820 nM and the Vd came to 1.73 L/kg. Besides, the half-life under setting [2] is 5.93 h. In addition, for the setting “po, 1 mg/kg”, the AUC amounted to 8.11 µM·h, the bioavailability stood at 76.7% and the Cmax came out at 1940 nM. Besides, the half-life under setting [1] was 7.35 h.

In the case of `C[C@H](NC1=CC(=O)C2(CCCC2)C(=O)N1)c1ccccc1` [Compound 3], for the setting “iv, 0.2 mg/kg”, the AUC came out at 1.33 µM·h, the clearance amounted to 8.11 mL/min/kg, the C0 was 773 nM and the Vd came out at 1.6 L/kg. The half-life under setting [2] is 2.31 h. Also, where the note is “po, 1 mg/kg”, the AUC was determined as 7.32 µM·h, the bioavailability stood at 110% and the Cmax is 1380 nM. In addition, the half-life under setting [1] is 4.81 h.

As to `C[C@H](NC1=CC(=O)C2(CCCC2)C(=O)N1)c1cccc(Cl)c1` [Compound 7], where the note is “iv, 0.2 mg/kg”, the area under the curve (AUC) came to 3.53 µM·h, the clearance turned out to be 2.93 mL/min/kg, the C0 came out at 3700 nM and the Vd was found to be 0.885 L/kg. Further, the half-life under setting [2] was 3.86 h. For the same compound, under “po, 1 mg/kg”, the area under the curve (AUC) is 14.8 µM·h, the bioavailability was 88.1% and the Cmax was 2140 nM. Besides, the half-life under setting [1] is 5.96 h.
